Measurements published in ChEMBL document CHEMBL4680292, “Neothalfine, a potent natural anti-tumor agent against metastatic colorectal cancer and its primary mechanism” (Bioorg Med Chem, 2021).
Calls of active or inactive are those of the source. The calls are words filed in the database; no cut-off is given here.

Assays:
HCT-116 [1] = assay: Anticancer activity against human HCT-116 cells assessed as inhibition of cell proliferation measured after 72 hrs by MTT assay; type: functional, cell-based; conditions: HCT-116, 72 h
SW-620 [2] = assay: Anticancer activity against human SW-620 cells assessed as inhibition of cell proliferation measured after 72 hrs by MTT assay; type: functional, cell-based; conditions: SW-620, 72 h
T84 [3] = assay: Anticancer activity against human T84 cells assessed as inhibition of cell proliferation measured after 72 hrs by MTT assay; type: functional, cell-based; conditions: T84, 72 h
SW-620 [4] = assay: Inhibition of colony formation in human SW-620 cells assessed as damaged tumor sphere at 3 to 6 uM by crystal violet staining based microscopic analysis; type: functional, cell-based; conditions: dose 3-6 µM
SW-620 [5] = assay: Inhibition of colony formation in human SW-620 cells assessed as effect on tumor sphere formation at 30 nM by crystal violet staining based microscopic analysis; type: functional, cell-based
SW-620 [6] = assay: Induction apoptosis in human SW-620 cells assessed as increase in necrotic cells apoptotic cells at 12 uM measured after 72 hrs by Annexin VFITC /PI staining with flow cytometry (reference value: 0.24%); type: functional
SW-620 [7] = assay: Induction apoptosis in human SW-620 cells assessed as increase in late apoptotic cells at 12 uM measured after 72 hrs by Annexin VFITC /PI staining with flow cytometry (reference value: 3.18%); type: functional
SW-620 [8] = assay: Induction apoptosis in human SW-620 cells assessed as increase in early apoptotic cells at 12 uM measured after 72 hrs by Annexin VFITC /PI staining with flow cytometry (reference value: 4.08%); type: functional
SW-620 [9] = assay: Induction apoptosis in human SW-620 cells assessed as increase in live cells at 12 uM measured after 72 hrs by Annexin VFITC /PI staining with flow cytometry (reference value: 92.6%); type: functional
SW-620 [10] = assay: Induction apoptosis in human SW-620 cells assessed as increase in necrotic cells apoptotic cells at 6 uM measured after 72 hrs by Annexin VFITC /PI staining with flow cytometry (reference value: 0.24%); type: functional
SW-620 [11] = assay: Induction apoptosis in human SW-620 cells assessed as increase in late apoptotic cells at 6 uM measured after 72 hrs by Annexin VFITC /PI staining with flow cytometry (reference value: 3.18%); type: functional
SW-620 [12] = assay: Induction apoptosis in human SW-620 cells assessed as increase in early apoptotic cells at 6 uM measured after 72 hrs by Annexin VFITC /PI staining with flow cytometry (reference value: 4.08%); type: functional
SW-620 [13] = assay: Induction apoptosis in human SW-620 cells assessed as increase in live cells at 6 uM measured after 72 hrs by Annexin VFITC /PI staining with flow cytometry (reference value: 92.6%); type: functional
SW-620 [14] = assay: Induction of cell cycle arrest in human SW-620 cells assessed as increase in number of cells at G2/M phase at 6 uM measured after 72 hrs by PI staining using flow cytometry (reference value: 27.08%); type: functional
SW-620 [15] = assay: Induction of cell cycle arrest in human SW-620 cells assessed as increase in number of cells at G0/G1 phase at 6 uM measured after 72 hrs by PI staining using flow cytometry (reference value: 60.05%); type: functional
SW-620 [16] = assay: Induction of cell cycle arrest in human SW-620 cells assessed as increase in number of cells at G2/M phase at 7 nM measured after 72 hrs by PI staining using flow cytometry (reference value: 27.08%); type: functional
T98G [17] = assay: Cytotoxicity against human T98G cells assessed as reduction in cell growth at 15 uM measured after 48 hrs; type: functional, cell-based
MHCC97H [18] = assay: Cytotoxicity against human MHCC97H cells assessed as reduction in cell growth at 15 uM measured after 48 hrs; type: functional, cell-based
SMMC-7721 [19] = assay: Cytotoxicity against human SMMC-7721 cells assessed as reduction in cell growth at 15 uM measured after 48 hrs; type: functional, cell-based
NCI-H1299 [20] = assay: Cytotoxicity against human NCI-H1299 cells assessed as reduction in cell growth at 15 uM measured after 48 hrs; type: functional, cell-based
MDA-MB-231 [21] = assay: Cytotoxicity against human MDA-MB-231 cells assessed as reduction in cell growth at 15 uM measured after 48 hrs; type: functional, cell-based
PC-3 [22] = assay: Cytotoxicity against human PC-3 cells assessed as reduction in cell growth at 15 uM measured after 48 hrs; type: functional, cell-based
SK-OV-3 [23] = assay: Cytotoxicity against human SK-OV-3 cells assessed as reduction in cell growth at 15 uM measured after 48 hrs; type: functional, cell-based
HCT-116 [24] = assay: Cytotoxicity against human HCT-116 cells assessed as reduction in cell growth at 15 uM measured after 48 hrs; type: functional, cell-based
SW-620 [25] = assay: Cytotoxicity against human SW-620 cells assessed as reduction in cell growth at 15 uM measured after 48 hrs; type: functional, cell-based
T84 [26] = assay: Cytotoxicity against human T84 cells reduction in cell growth at 15 uM measured after 48 hrs; type: functional, cell-based
T98G [27] = assay: Anticancer activity against human T98G cells assessed as inhibition of cell proliferation measured after 72 hrs by MTT assay; type: functional, cell-based
MHCC97H [28] = assay: Anticancer activity against human MHCC97H cells assessed as inhibition of cell proliferation measured after 72 hrs by MTT assay; type: functional, cell-based
SMMC-7721 [29] = assay: Anticancer activity against human SMMC-7721 cells assessed as inhibition of cell proliferation measured after 72 hrs by MTT assay; type: functional, cell-based; conditions: SMMC-7721, 72 h
NCI-H1299 [30] = assay: Anticancer activity against human NCI-H1299 cells assessed as inhibition of cell proliferation measured after 72 hrs by MTT assay; type: functional, cell-based; conditions: NCI-H1299, 72 h
MDA-MB-231 [31] = assay: Anticancer activity against human MDA-MB-231 cells assessed as inhibition of cell proliferation measured after 72 hrs by MTT assay; type: functional, cell-based; conditions: MDA-MB-231, 72 h
PC-3 [32] = assay: Anticancer activity against human PC-3 cells assessed as inhibition of cell proliferation measured after 72 hrs by MTT assay; type: functional, cell-based; conditions: PC-3, 72 h
SK-OV-3 [33] = assay: Anticancer activity against human SK-OV-3 cells assessed as inhibition of cell proliferation measured after 72 hrs by MTT assay; type: functional, cell-based; conditions: SK-OV-3, 72 h
SW-620 [34] = assay: Induction of cell cycle arrest in human SW-620 cells assessed as increase in number of cells at G0/G1 phase at 7 nM measured after 72 hrs by PI staining using flow cytometry (reference value: 60.05%); type: functional
SW-620 [35] = assay: Induction apoptosis in human SW-620 cells assessed as increase in live cells at 7 nM measured after 72 hrs by Annexin VFITC /PI staining with flow cytometry (reference value: 92.6%); type: functional
SW-620 [36] = assay: Inhibition of colony formation in human SW-620 cells assessed as damaged tumor spheres at 3.5 to 30 nM by crystal violet staining based microscopic analysis; type: functional, cell-based; conditions: dose 3.5-30 nM
SW-620 [37] = assay: Induction of apoptosis in human SW-620 cells assessed as increase in cleaved caspase 3/7 level at 15 nM relative to control; type: functional
SW-620 [38] = assay: Induction of apoptosis in human SW-620 cells assessed as increase in cleaved caspase 3/7 level at 11.5 nM relative to control; type: functional
SW-620 [39] = assay: Induction of apoptosis in human SW-620 cells assessed as increase in cleaved caspase 3/7 level at 7 nM relative to control; type: functional
SW-620 [40] = assay: Induction of apoptosis in human SW-620 cells assessed as increase in cleaved caspase 3/7 level at 3.5 nM relative to control; type: functional
SW-620 [41] = assay: Induction of mitochondrial membrane potential loss in human SW-620 cells at 3.5 nM by JC-1 staining based fluorescence microscopic analysis; type: functional, cell-based
SW-620 [42] = assay: Induction apoptosis in human SW-620 cells assessed as increase in necrotic cells apoptotic cells at 15 nM measured after 72 hrs by Annexin VFITC /PI staining with flow cytometry (reference value: 0.24%); type: functional
SW-620 [43] = assay: Induction apoptosis in human SW-620 cells assessed as increase in late apoptotic cells at 15 nM measured after 72 hrs by Annexin VFITC /PI staining with flow cytometry (reference value: 3.18%); type: functional
SW-620 [44] = assay: Induction apoptosis in human SW-620 cells assessed as increase in early apoptotic cells at 15 nM measured after 72 hrs by Annexin VFITC /PI staining with flow cytometry (reference value: 4.08%); type: functional
SW-620 [45] = assay: Induction apoptosis in human SW-620 cells assessed as increase in live cells at 15 nM measured after 72 hrs by Annexin VFITC /PI staining with flow cytometry (reference value: 92.6%); type: functional
SW-620 [46] = assay: Induction apoptosis in human SW-620 cells assessed as increase in necrotic cells apoptotic cells at 7 nM measured after 72 hrs by Annexin VFITC /PI staining with flow cytometry (reference value: 0.24%); type: functional
SW-620 [47] = assay: Induction apoptosis in human SW-620 cells assessed as increase in late apoptotic cells at 7 nM measured after 72 hrs by Annexin VFITC /PI staining with flow cytometry (reference value: 3.18%); type: functional
SW-620 [48] = assay: Induction apoptosis in human SW-620 cells assessed as increase in early apoptotic cells at 7 nM measured after 72 hrs by Annexin VFITC /PI staining with flow cytometry (reference value: 4.08%); type: functional

CCc1c2c(nc3ccc(OC(=O)N4CCC(N5CCCCC5)CC4)cc13)-c1cc3c(c(=O)n1C2)COC(=O)[C@]3(O)CC [IRINOTECAN]
IC50 (HCT-116 [1]): 4.4 nM | IC50 (SW-620 [2]): 5.1 nM | IC50 (T84 [3]): 6.9 nM | inhibition (SW-620 [4]): Active | inhibition (SW-620 [5]): inactive | Activity (SW-620 [6]): 0.34% | Activity (SW-620 [7]): 5.3% | Activity (SW-620 [8]): 13.18% | Activity (SW-620 [9]): 81.18% | Activity (SW-620 [10]): 0.34% | Activity (SW-620 [11]): 4.12% | Activity (SW-620 [12]): 7.84% | Activity (SW-620 [13]): 87.7% | Activity (SW-620 [14]): 55.12% | Activity (SW-620 [15]): 33.53%

COc1ccc2cc1Oc1ccc(cc1)Cc1nccc3c4c(c(OC)c(c13)Oc1c3c(cc(OC)c1OC)[C@H](C2)N(C)CC3)OCO4
Activity (SW-620 [16]): 41% | Activity (T98G [17]): Active | Activity (MHCC97H [18]): Active | Activity (SMMC-7721 [19]): Active | Activity (NCI-H1299 [20]): Active | Activity (MDA-MB-231 [21]): Active | Activity (PC-3 [22]): Active | Activity (SK-OV-3 [23]): Active | Activity (HCT-116 [24]): Active | Activity (SW-620 [25]): Active | Activity (T84 [26]): Active | IC50 (T98G [27]): 382 nM | IC50 (MHCC97H [28]): 145 nM | IC50 (SMMC-7721 [29]): 73 nM | IC50 (NCI-H1299 [30]): 132 nM | IC50 (MDA-MB-231 [31]): 467 nM | IC50 (PC-3 [32]): 661 nM | IC50 (SK-OV-3 [33]): 180 nM | IC50 (HCT-116 [1]): 7.2 nM | IC50 (SW-620 [2]): 5.9 nM | IC50 (T84 [3]): 8.2 nM | Activity (SW-620 [34]): 46.37% | Activity (SW-620 [35]): 82.74% | inhibition (SW-620 [36]): Active | fold change (FC) (SW-620 [37]): 12.9 | fold change (FC) (SW-620 [38]): 9.3 | fold change (FC) (SW-620 [39]): 8.2 | fold change (FC) (SW-620 [40]): 3.3 | Activity (SW-620 [41]): Active | Activity (SW-620 [42]): 0.15% | Activity (SW-620 [43]): 4.83% | Activity (SW-620 [44]): 26.2% | Activity (SW-620 [45]): 69.82% | Activity (SW-620 [46]): 1.2% | Activity (SW-620 [47]): 7.36% | Activity (SW-620 [48]): 8.7%

CC(=O)O[C@@]12CO[C@@H]1C[C@H](O)[C@@]1(C)C(=O)[C@H](O)C3=C(C)[C@@H](OC(=O)[C@H](O)[C@@H](NC(=O)OC(C)(C)C)c4ccccc4)C[C@@](O)([C@@H](OC(=O)c4ccccc4)[C@H]21)C3(C)C [DOCETAXEL ANHYDROUS]
IC50 (HCT-116 [1]): 4 nM | IC50 (SW-620 [2]): 4.7 nM | IC50 (T84 [3]): 2.7 nM
